Laboratory results: ChEMBL document CHEMBL3639308, “Substituted naphthyridines and their use as medicaments” (2015)

Target: Tyrosine-protein kinase SYK (Homo sapiens, UniProt P43405)

COc1cc(-c2cc3ncccc3c(O[C@H](C)[C@H]3CNC(=O)C3)n2)ccc1OC(F)(F)F
IC50: 1.9 nM
